These results are taken from PubChem BioAssay (NCI).

Where “and” joins values, the source holds several entries; their conditions need not be identical. Equal values may be shown once.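 Interpolation was linear, between the two tested concentrations surrounding the appropriate level; five concentrations were tested over 48 hours in 96-well plates. Abbreviation: GI50, concentration required for 50% inhibition of growth. At the TGI there is no net growth.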

Test in all cases: DTP human tumour cell line panel, 48 h
The test system of assay [1] is MALME-3M melanoma.
Assay [2] relates to U251 CNS.
Assay [3] has as its system TK-10 renal.
Assay [4] relates to SF-268 CNS.
Assay [5] relates to OVCAR-5 ovarian.
In assay [6] the test system is HOP-92 NSCLC.
The subject of assay [7] is BT-549 breast.
The test system of assay [8] is HCT-15 colon.
The test system of assay [9] is MOLT-4 leukemia.
Assay [10] has as its system 786-0 renal.

As to `Cn1c(C(C)(C)OC(=O)Oc2ccccc2)cnc1[N+](=O)[O-]`, the TGI in [1], in assay [2], in assay [3], in assay [4], in [5] and in assay [6] was more than 100 µM in each case. For the same compound, the TGI in assay [7] is more than 100 µM; in assay [8] it was more than 100 µM; in [9], 45.8 µM; in [10] it was more than 100 µM.

`O=S(=O)(NCCO)c1cc[c]([Sb](=[O])([OH])[OH])cc1`: the GI50 in assay [1], in [2], in [3], in assay [4], in assay [5] and in [6] was more than 100 µM in each case. The GI50 in assay [7], in assay [8], in assay [9] and in [10] was more than 100 µM throughout. For the same compound, the TGI in assay [1], in assay [2], in assay [3], in [4], in [5] and in assay [6] was more than 100 µM throughout. In addition, the TGI in assay [7], in [8], in assay [9] and in assay [10] was more than 100 µM each time.

Regarding `N=C(N)SCc1ccc([N+](=O)[O-])cc1[N+](=O)[O-]`, the GI50 in assay [1] was 3.48 µM; in [2], 19.2 µM; in [3], 5.9 µM; in assay [4], 13.9 µM; in [5], 23.1 µM; in assay [6] it was 2.4 µM. Besides, the GI50 was 7.35 µM in assay [7], 5.01 µM in assay [8], 3.07 µM in assay [9] and 11.8 µM in assay [10]. Also, the TGI in [1] is 18.7 µM; in [2], more than 100 µM; in assay [3] it was 19.7 µM; in assay [4], 69.8 µM; in assay [5] it was 40 µM; in [6], 9.91 µM. Also, the TGI in [7] was 28.6 µM; in assay [8], 19.4 µM; in [9], 20.2 µM; in assay [10], 27.8 µM.

With `CC12CCC(O)CC1=CCC1C2CCC2(C)C(c3cccnc3)=CCC12` (stereo not given), the GI50 in [1] was more than 100 µM; in [2] it was 70.1 µM; in assay [3], more than 100 µM; in assay [4] it was 95.2 µM; in [5], more than 100 µM; in assay [6], 43 µM. Moreover, the GI50 is more than 100 µM in assay [7], more than 100 µM in assay [8], more than 100 µM in assay [9] and 50.4 µM in assay [10]. Also, the TGI in [1], in [2], in [3], in assay [4], in [5] and in assay [6] was more than 100 µM each time. The TGI in [7], in assay [8], in assay [9] and in assay [10] was more than 100 µM each time.

On to `CC/C=C\C[C@H](O)C/C=C1/C(=O)C=C[C@@H]1C/C=C\CCCC(=O)NC`, for which the GI50 is 1.94 µM in assay [1]; 1.3 µM in assay [2]; 2.85 µM in assay [3]; 2.94 µM in assay [4]; 2 µM in [5]; 3.3 µM in [6]. Also, the GI50 is 1.91 µM in [7], 1.52 µM in [8], 2.4 µM in assay [9] and 1.81 µM in [10]. In addition, the TGI was 4.65 µM in assay [1]; 4.26 µM in assay [2]; 6.49 µM in assay [3]; 12.9 µM in assay [4]; 4.27 µM in assay [5]; 6.66 µM in [6]. In addition, the TGI is 4.99 µM in [7], 5.09 µM in [8], 11.3 µM in assay [9] and 3.6 µM in [10].

Take `COc1ccc(-c2nc(-c3nc4ccc(C(F)(F)F)cc4[nH]3)c3ccccn23)cc1`: the GI50 in assay [1], in [2], in assay [3], in assay [4], in assay [5] and in [6] was more than 100 µM each time. The GI50 in [7] is more than 100 µM; in assay [8], more than 100 µM; in assay [9], 2.81 µM; in assay [10], more than 100 µM. For the same compound, the TGI in assay [1], in assay [2], in [3], in [4], in assay [5] and in [6] was more than 100 µM throughout. The TGI in [7], in assay [8], in assay [9] and in [10] was more than 100 µM throughout.

For `O=C(c1ccccc1O)c1[nH]c(Cl)c(Cl)c1-n1c(C(=O)c2ccccc2O)cc(Cl)c1Cl`, the GI50 was 1.37 µM in [1]; 1.29 µM and 1.42 µM in assay [2]; 0.656 µM and 0.616 µM in [3]; 0.677 µM and 0.546 µM in assay [4]; 2.54 µM and 2.73 µM in assay [5]; 0.224 µM and 0.155 µM in assay [6]. The GI50 was 1.22 µM and 0.675 µM in assay [7]; 0.316 µM and 0.298 µM in [8]; 1.7 µM and 0.798 µM in [9]; 2.11 µM and 1.73 µM in assay [10]. Moreover, the TGI is 5.18 µM in assay [1]; 12.3 µM and 13.6 µM in assay [2]; 10.9 µM and 12.4 µM in assay [3]; 13.4 µM and 14.6 µM in [4]; 9.87 µM and 14.6 µM in [5]; 0.94 µM and 0.587 µM in assay [6]. The TGI in [7] was 6.74 µM and 4.96 µM; in assay [8], 12.1 µM and 11.1 µM; in assay [9], 14.4 µM and 5.74 µM; in [10], 11.2 µM and 7.99 µM.

For the compound `C[n+]1c(/C=C/c2ccc(/C=N/NC(=O)c3ccc(C(=O)N/N=C/c4ccc(/C=C/c5cn6ccccc6[n+]5C)cc4)cc3)cc2)cn2ccccc21`, the TGI in [1], in assay [2], in [3], in assay [4], in [5] and in [6] was more than 100 µM in each case. Moreover, the TGI in assay [7] was more than 100 µM; in assay [8], more than 100 µM; in [9], 92.4 µM; in [10] it was more than 100 µM.

As a reminder, the TGI is the concentration giving total growth inhibition. A higher TGI goes with lower sensitivity of the cells. For orientation: GI50 means the concentration giving 50% growth inhibition.
